Measured values: patent US20100035251A1, “BioMarkers for the Progression of Alzheimer's Disease” (priority 2006, published 2010)

Target: LRRK2 protein (SEQ ID NO:2) (Homo sapiens, UniProt Q5S007)
Assay: Drug Pull-Down experiments
Assay type: binding
Method: The pharmacological properties of the LRRK2 modulating agents can be evaluated, for example, in Drug Pull-Down experiments. The above-mentioned heterocyclic compounds can show activity in Drug Pull-Down experiments at concentrations below 20 μM.

Chain of LRRK2 protein (SEQ ID NO:2) (Q5S007 whole entry R50H/L212S): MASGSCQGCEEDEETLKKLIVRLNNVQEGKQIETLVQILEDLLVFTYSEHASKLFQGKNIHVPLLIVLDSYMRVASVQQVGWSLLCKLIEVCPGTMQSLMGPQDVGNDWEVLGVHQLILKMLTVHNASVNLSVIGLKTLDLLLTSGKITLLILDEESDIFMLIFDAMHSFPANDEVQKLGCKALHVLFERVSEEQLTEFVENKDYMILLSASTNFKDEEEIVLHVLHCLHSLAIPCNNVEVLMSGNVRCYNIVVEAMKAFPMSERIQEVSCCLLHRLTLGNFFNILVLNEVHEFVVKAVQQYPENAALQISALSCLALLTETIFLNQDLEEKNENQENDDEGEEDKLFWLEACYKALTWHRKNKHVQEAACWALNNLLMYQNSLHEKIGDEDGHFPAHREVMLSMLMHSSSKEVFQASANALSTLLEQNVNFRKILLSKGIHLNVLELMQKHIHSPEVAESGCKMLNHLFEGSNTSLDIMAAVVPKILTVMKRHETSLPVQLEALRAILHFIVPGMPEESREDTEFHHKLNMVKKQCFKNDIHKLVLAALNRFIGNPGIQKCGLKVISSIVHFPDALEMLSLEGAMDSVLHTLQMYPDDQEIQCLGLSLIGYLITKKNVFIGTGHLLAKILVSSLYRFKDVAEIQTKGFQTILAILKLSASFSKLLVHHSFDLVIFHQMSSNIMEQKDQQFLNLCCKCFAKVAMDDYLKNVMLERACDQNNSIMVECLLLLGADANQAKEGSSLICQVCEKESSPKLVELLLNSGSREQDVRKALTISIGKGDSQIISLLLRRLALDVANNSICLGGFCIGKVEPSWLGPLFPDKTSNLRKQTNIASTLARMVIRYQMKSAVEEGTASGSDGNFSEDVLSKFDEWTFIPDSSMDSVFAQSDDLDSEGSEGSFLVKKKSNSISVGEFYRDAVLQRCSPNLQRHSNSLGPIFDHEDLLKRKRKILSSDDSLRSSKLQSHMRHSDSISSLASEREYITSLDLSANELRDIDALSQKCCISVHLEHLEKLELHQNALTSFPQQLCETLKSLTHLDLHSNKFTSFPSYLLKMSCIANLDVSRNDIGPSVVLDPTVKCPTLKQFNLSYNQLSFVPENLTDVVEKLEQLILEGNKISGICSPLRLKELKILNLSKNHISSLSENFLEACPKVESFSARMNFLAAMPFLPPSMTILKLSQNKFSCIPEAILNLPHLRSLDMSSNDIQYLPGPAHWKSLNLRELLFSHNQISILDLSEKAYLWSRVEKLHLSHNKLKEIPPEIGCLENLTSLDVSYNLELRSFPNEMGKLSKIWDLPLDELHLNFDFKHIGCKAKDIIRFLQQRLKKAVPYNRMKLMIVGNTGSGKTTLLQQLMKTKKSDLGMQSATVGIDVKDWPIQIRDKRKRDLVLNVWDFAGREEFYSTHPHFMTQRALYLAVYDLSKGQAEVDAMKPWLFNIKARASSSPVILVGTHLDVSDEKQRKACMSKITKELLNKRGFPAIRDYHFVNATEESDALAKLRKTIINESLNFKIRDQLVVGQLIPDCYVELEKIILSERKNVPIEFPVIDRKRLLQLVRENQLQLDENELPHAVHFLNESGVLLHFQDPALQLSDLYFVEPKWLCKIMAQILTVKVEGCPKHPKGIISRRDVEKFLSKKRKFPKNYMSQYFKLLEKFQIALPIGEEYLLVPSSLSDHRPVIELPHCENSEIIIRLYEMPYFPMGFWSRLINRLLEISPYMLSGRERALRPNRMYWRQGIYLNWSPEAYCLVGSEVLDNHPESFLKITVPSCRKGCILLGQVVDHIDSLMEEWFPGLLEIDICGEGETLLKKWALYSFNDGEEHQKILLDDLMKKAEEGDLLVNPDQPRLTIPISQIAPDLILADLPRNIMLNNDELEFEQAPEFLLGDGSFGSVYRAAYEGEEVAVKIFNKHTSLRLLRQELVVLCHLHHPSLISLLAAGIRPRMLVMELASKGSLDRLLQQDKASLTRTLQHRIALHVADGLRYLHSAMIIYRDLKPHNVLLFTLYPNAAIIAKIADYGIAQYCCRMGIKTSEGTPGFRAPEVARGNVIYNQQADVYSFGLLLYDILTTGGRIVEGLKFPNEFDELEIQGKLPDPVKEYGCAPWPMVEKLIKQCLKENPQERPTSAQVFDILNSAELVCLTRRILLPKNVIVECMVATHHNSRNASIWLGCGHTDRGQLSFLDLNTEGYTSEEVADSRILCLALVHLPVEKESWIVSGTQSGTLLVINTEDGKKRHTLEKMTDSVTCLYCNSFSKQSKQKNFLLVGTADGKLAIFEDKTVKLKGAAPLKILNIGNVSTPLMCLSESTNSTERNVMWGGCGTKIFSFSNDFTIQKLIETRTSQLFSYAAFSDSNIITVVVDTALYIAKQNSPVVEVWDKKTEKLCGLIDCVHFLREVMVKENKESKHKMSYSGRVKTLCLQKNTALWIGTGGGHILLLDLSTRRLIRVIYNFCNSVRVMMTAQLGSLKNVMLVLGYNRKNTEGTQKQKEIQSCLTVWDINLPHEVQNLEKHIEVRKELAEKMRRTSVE

IC50: ~1000 nM
SMILES: Cc1[nH]c(/C=C2\C(=O)Nc3ccccc32)c(C)c1CCC(=O)O [Compound 12]
